Consider four molecules from patent US20120029037A1, “ANIMAL ECTOPARASITE-CONTROLLING AGENT” (SUMITOMO CHEMICAL COMPANY, LIMITED, priority 2010, published 2012).

What all share (format): in vivo
Test [1] has as its system Ticks (Haemaphysalis longicornis). Briefly: Pesticidal activity on ticks in filter paper test. As to conditions: 48 h, 100 mg/m^2, non-blood-fed young ticks, 2 days later. The method, then: Pesticidal Activity on Ticks (Haemaphysalis longicornis) in Filter Paper Test
Each (5 mg) of the present hydrazide compounds (5), (8), (11) and (12) was dissolved in acetone (10 mL), and this acetone solution (1 mL) was uniformly applied onto one side of a filter paper (TOYO No. 2; 5×10 cm; the surface area of the filter paper was 50 cm^2, and thus the amount of the present hydrazide compound applied was 100 mg/m^2). After drying, said filter paper was folded, and the both sides of the paper were clipped to form a bag. Into this bag, test ticks (Haemaphysalis longicornis, non-blood-fed young ticks, 10 ticks/group) were added, and the opening was clipped to seal the bag. Two (2) days later, the number of dead ticks was examined and the mortality was calculated by the following formula:
Mortality (%)=100×(number of dead ticks/number of ticks tested)

The test system of test [2] is Cat-infested cat fleas (Ctenocephalides felis). Nature of the test: Dropping application against cat-infested cat fleas. The note with it: dropping on skin; for Flea control rates (%) at 2 days after the application: vs infestation before application; for Flea control rates (%) at 16 days after the application: vs placebo group. The method, then: Propping Application Against Cat-Infested Cat Fleas (Ctenocephalides felis)
The previous day before dropping application, 50 test fleas (cat flea adults) were deposited on a cat. Before the dropping application, infested fleas were counted.
The present hydrazide compound (5) (0.75 g or 1.5 g) was dissolved in diethylene glycol monoethyl ether (6.0 g) to prepare a test solution. Said test solution was directly dropped on the skin of the neck and back of the cat while pushing aside fur thereon on at a rate of 0.1 ml per 1 kg of the cat's body weight (dose amount: 10 or 20 mg/kg). This is referred to as a test group. On the other hand, diethylene glycol monoethyl ether alone was applied dropwise to a placebo group.
Two (2) days after the application, the number of living fleas, which were infesting the cats, was examined. When the examination was completed, all infested fleas were removed from the cats.
Fourteen (14) days later, 50 test fleas were re-deposited on each cat. Two (2) days after the re-deposit, the number of living fleas, which were infesting the cats, was examined. When the examination was completed, all infested fleas were removed from the cats. The infestation rate and control rate were calculated by the following formulae: […]
(i) Method of calculating infestation rate and control rate at the initial stage (2 days) after the application:
Infestation rate (%) at X days after application=(number of living fleas at X days/number of living fleas before application)×100
Control rate (%) at X days after application=(infestation rate of test group before application−infestation rate of test group at X days)/infestation rate of test group before application×100
(ii) Method of calculating infestation rate and control rate at 16 days after the application:
Infestation rate (%) at X days after application=(number of living fleas at X days/number of fleas deposited)×100
Control rate (%) at X days after application=(infestation rate of placebo group at X days−infestation rate of test group at X days)/infestation rate of placebo group at X days×100
(§1) In addition, if an infestation rate of a test group is higher than a placebo group, then the control rate is deemed to be 0%.

Test [3] concerns Mouse-infested ticks (Haemaphysalis longicornis). Nature of the test: Oral administration against mouse-infested ticks. As to conditions: 20 mg in 10 mL test solution at 10 mL per 1 kg body weight, 2 days after administration. The procedure:
Oral Administration Against Mouse-Infested Ticks (Haemaphysalis longicornis)
The previous day before oral administration, 30 test ticks (Haemaphysalis longicornis, young ticks) were deposited on a mouse. Before the oral administration, uninfested ticks were removed.
The present hydrazide compound (5) (20 mg) was dissolved in dimethylformamide (680 mg), and thereto pure water or a corn oil was added to prepare a test solution (10 mL). Said test solution was orally administered to the mouse at the rate of 10 mL per 1 kg of the body weight of the mouse with a gastric sonde. To a control group, a 7% dimethylformamide/corn oil solution alone was orally administered. Each administration was repeated 3 times per group.
Two (2) days after the administration, the number of dead ticks was examined and the mortality was calculated by the following formula:
Mortality (%)=100×(number of dead ticks/infested ticks before oral administration)

For test [4] the test system is unchanged. Nature of the test: Dropping application against mouse-infested ticks. The note with it: 0.1% w/v solution 200 μL dropwise to whole body surface, 2 days after application. The procedure: Propping Application Against Mouse-Infested Ticks (Haemaphysalis longicornis)
The previous day before dropping application, 30 test ticks (Haemaphysalis longicornis, young ticks) were deposited on a mouse. Before the dropping application, uninfested ticks were removed.
The present hydrazide compound (5) (5 mg) was dissolved in a mixture (5 mL) of propylene carbonate and diethylene glycol monoethyl ether in equal amounts to prepare a 0.1% w/v solution. Said solution (200 μL) was applied dropwise to the whole body surface of a mouse with a pipette. To a control group, the mixture (200 μL) alone was applied. Each application was repeated 3 times per group.
Two (2) days after the application, the number of dead ticks was examined and the mortality was calculated by the following formula:
Mortality (%)=100×(number of dead ticks/infested ticks before dropping application)

Test [5] has as its system Mouse-infested cat fleas (Ctenocephalides felis). Nature of the test: Oral administration against mouse-infested cat fleas. The note with it: 20 mg in 10 mL test solution at 10 mL per 1 kg body weight, 2 days later. The procedure:
Oral Administration Against Mouse-Infested Cat Fleas (Ctenocephalides felis)
The present hydrazide compound (5) (20 mg) was dissolved in dimethylformamide (680 mg), and thereto pure water or a corn oil was added to prepare a test solution (10 mL). Said test solution was orally administered to the mouse at a rate of 10 mL per 1 kg of the body weight of the mouse with a gastric sonde. To a control group, a 7% dimethylformamide/corn oil solution alone was orally administered. Each administration was repeated 3 times per group.
After the oral administration, 20 cat fleas were deposited on each mouse. Two (2) days later, the number of cat fleas was examined and the mortality was calculated by the following formula:
(§2) Mortality (%)=100×(number of dead cat fleas/number of cat fleas tested)

The test system of test [6] is Dog-infested ticks (Haemaphysalis longicornis). Nature of the test: Dropping application against dog-infested ticks. The note with it: dropping on skin, 16 days after application, vs placebo group. The method, then: Propping Application Against Dog-Infested Ticks (Haemaphysalis longicornis)
The present hydrazide compound (5) (0.75 or 1.5 g) was dissolved in diethylene glycol monoethyl ether (6.0 g) to prepare a test solution. Said test solution was directly dropped on the skin of the neck and back of the dog while pushing aside fur thereon at a rate of 0.1 ml per 1 kg of the dog's body weight (dose amount: 10 or 20 mg/kg). This is referred to as a test group. On the other hand, diethylene glycol monoethyl ether alone was applied dropwise to a placebo group.
Fourteen (14) days later, 100 test ticks were deposited on each dog. Two (2) days after the deposit, the number of living ticks, which were infesting the dogs, was examined. When the examination was completed, all infested ticks were removed from the dogs. The infestation rate and control rate were calculated by the following formulae: […]
Method of calculating infestation rate and control rate at 16 days after the application:
Infestation rate (%) at X days after application=(number of living ticks at X days/number of ticks deposited)×100
Control rate (%) at X days after the application=(infestation rate of placebo group at X days−infestation rate of test group at X days)/infestation rate of placebo group at X days×100
as §1

Test [7] has as its system Mouse-infested cat fleas (Ctenocephalides felis). Nature of the test: Dropping application against mouse-infested cat fleas. As to conditions: 0.5% w/v solution 200 μL dropwise along dorsal line, 2 days later. The procedure:
Propping Application Against Mouse-Infested Cat Fleas (Ctenocephalides felis)
The present hydrazide compound (5) (25 mg) was dissolved in propylene carbonate (5 mL) to prepare a 0.5% w/v solution. Said solution (200 μL) was applied dropwise along the dorsal line of a mouse with a pipette. To a control group, propylene carbonate (200 μL) alone was applied. Each application was repeated 3 times per group.
After the dropping application, 20 cat fleas were deposited on each mouse. Two (2) days later, the number of dead cat fleas was examined and the mortality was calculated by the following formula:
as §2

In the case of `CCCCCC(=O)NNc1cc(C2=NOC(c3cc(Cl)cc(Cl)c3)(C(F)(F)F)C2)ccc1Cl` (centres unmarked) [(12), N′-{5-[5-(3,5-dichlorophenyl)-5-trifluoromethyl-4,5-dihydroisoxazol-3-yl]-2-chlorophenyl}hexanohydrazide], the mortality at 100 mg/m2 in test [1] is ≥ 90%.
On the same count and under the same terms, with `CCCCC(=O)NNc1cc(C2=NOC(c3cc(Cl)cc(Cl)c3)(C(F)(F)F)C2)ccc1Cl` (centres unmarked) [(11), N′-{5-[5-(3,5-dichlorophenyl)-5-trifluoromethyl-4,5-dihydroisoxazol-3-yl]-2-chlorophenyl}pentanohydrazide] the figure was ≥ 90%.
Regarding `CC(C)CC(=O)NNc1cc(C2=NOC(c3cc(Cl)cc(Cl)c3)(C(F)(F)F)C2)ccc1Cl` (centres unmarked) [Compound (5), N′-{2-chloro-5-[5-(3,5-dichlorophenyl)-5-trifluoromethyl-4,5-dihydroisoxazol-3-yl]phenyl}isovalerohydrazide], the figures for the “Flea control rates (%) at 2 days after the application” value in test [2] (dose 10 mg/kg) and in test [2] (dose 20 mg/kg) were 83% and 92%, respectively. Further, the “Flea control rates (%) at 16 days after the application” value in test [2] (dose 10 mg/kg) is 92%; in test [2] (dose 20 mg/kg) it was 95%. The Mortality was ≥ 90% in test [3], ≥ 70% in test [4], ≥ 90% in test [5] and ≥ 70% in test [7]. The “Tick control rates (%) at 16 days after the application” value in test [6] (dose 10 mg/kg) is given as 93%; in test [6] (dose 20 mg/kg), 100%. Further, the mortality at 100 mg/m2 in test [1] is ≥ 90%.
Regarding `CC(C)(C)C(=O)NNc1cc(C2=NOC(c3cc(Cl)cc(Cl)c3)(C(F)(F)F)C2)ccc1Cl` (centres unmarked) [(8), N′-{5-[5-(3,5-dichlorophenyl)-5-trifluoromethyl-4,5-dihydroisoxazol-3-yl]-2-chlorophenyl}pivalohydrazide], the mortality at 100 mg/m2 in test [1] was ≥ 90%.

One may read the mortality as the share of the test organisms that died. A higher mortality goes with fewer survivors.
